What all share (assay type): cell-based
Assay [1] concerns human skin fibroblast cell line (Clonetics, CC-2509). The assay is described as follows: Collagen production in human skin fibroblasts (Takara EIA kit). To be noted: for collagen production, Median (absorbance at 450 nm) / collagen production, Mean (absorbance at 450 nm): 48 hours; for collagen production, Mean (absorbance at 450 nm): n=2, control mean 0.7388. As for the experimental part:
The stimulation response of the 19mer peptide (SEQ ID NO:11) on collagen production in the human skin fibroblast cell line (Clonetics, Walkersville, Md., normal human dermal fibroblasts, neonatal, catalog number CC-2509) was measured using Takara Biomedicals EIA assay kit (TAK MK101) sold by Panvera (Madison, Wis.). The cells were first grown in a 96-well assay system using Dulbecco's Modified Eagle's Medium (DMEM) with 10% fetal bovine serum (FBS) both purchased from Sigma Chemical Co, St. Louis, Mo. Serum-free DMEM was used as a control. […] Plates were incubated for 24 hours at 37° C. in a humidified 5% CO2 atmosphere. After incubation, the medium was aspirated and the wells were rinsed twice with 100 μl of serum-free DMEM. […] In addition, 100 μl of vehicle (serum-free DMEM) was added to 4 wells as control. All wells were incubated for 48 hours at 37° C. in a humidified, 5% CO2 atmosphere.
The assay was performed using the recommended 20 ul of the supernatant from each well of the 96-well plate. Standard buffer and stop solutions were freshly prepared before running the assay. 100 ul of antibody-POD conjugate solution (supplied with the kit) was added into the wells using pre antibody coated 96 well plate (supplied with the kit). 20 ul of standard and test solutions (from the other 96-well plate containing fibroblasts) were added to appropriate wells. Plate was mixed gently, sealed and incubated for three hrs. at 37° C.
After incubation each well was washed carefully four times with PBS buffer (400 ul). All the wells were completely emptied at the end of washing from any liquid. 100 ul of substrate solution (hydrogen peroxide and tetramethylbenzidine in a buffer solution, supplied with the kit) was added to each well and the plate was incubated for 15 minutes. At this point 100 ul of stop solution (freshly prepared 1N H2SO4) was added to each well in the same order as substrate. The plate was gently mixed and absorbance was read at 450 nm. Results were analyzed statistically using one-way ANOVA.

The test system of assay [2] is normal human dermal fibroblasts (NHDF). Description: NHDF migration assay (48-well chemotaxis chamber). As for the experimental part: Normal, human dermal fibroblasts (NHDF) were obtained from Biowhittaker, (Walkersville, Md.) and propagated in T75 flasks in FBM media (500 mL, Biowhittaker) containing insulin, hFGF-b, GA-1000, and fetal bovine serum (10 mL) for up to 12 passages. For the migration assay, NHDF were washed once with 10 mL of Hank's buffered saline solution (HBSS). Three milliliters of trypsin (0.25%) in EDTA were added to the T75 flask for no more than five minutes to remove NHDF from the flask. NHDF in trypsin solution were added to 7 mL of FBM with no supplements added. NHDF were centrifuged for 5 minutes, and the supernatant was removed. NHDF were resuspended in 10 mL of FBM for counting. NHDF were centrifuged for another 5 minutes, and the supernatant was removed. NHDF were resuspended at 1×10^6 cells per mL in FBM without supplements. It was important to use FBM media only in migration assays because the complete media contains fibroblast growth factor and serum, both of which will trigger migration of fibroblasts.
Peptides were synthesized and purified by the Microchemical Facility at Emory University or by SigmaGenesis. All peptides were analyzed by mass spectrometry after HPLC to assess purity. Approximately 0.5–2.0 milligrams of peptide were used to make fresh stock solutions (5 mg/mL in PBS) for each migration assay. The peptide stock solutions in PBS were used to make more dilute solutions (1 mg/mL, 100 μg/mL, 10 μg/mL, 1 μg/mL, 100 ng/mL, 10 ng/mL) in FBM (without supplements) for the migration assays.
Polyvinylpyrrolidone-free polycarbonate membranes with […] pores (Neuroprobe, Inc., Gaithersburg, Md.) were washed with 90% ethanol for 15 minutes and rinsed four times with deionized water. Membranes were then placed into a glass dish containing an aqueous solution of 5 μg/mL gelatin. The glass dish was placed in to a water bath at about 90° C. for one hour. Membranes were removed from the gelatin solution and were allowed to dry for one hour in the 37° C. incubator.
A 48-well chemotaxis chamber (Neuroprobe, Inc., Gaithersburg, Md.) (see FIG. 20) was used for the migration assays. Twenty-eight/μL of each test solution were added to the bottom wells of the chamber in quadruplicate. A gelatin-treated membrane was placed carefully on top of the bottom wells. The gasket and top part of chamber were then placed carefully on top of the membrane. The apparatus was tightened using six thumbscrews. A solution of NHDF containing an estimated cell density (2×10^5 cells per mL) was made by adding 320 μL of the 1×10^6 cells per mL solution to 1.28 mL of FBM (no supplements). Fifty microliters of the 2×10^5 cells per mL NHDF solution were added to the top part of each well in the chamber. The chamber was placed in the incubator at 37° C./5% CO2 for three hours. The chamber was removed, the thumbscrews were removed, and the chamber was turned upside down on a paper towel. […] The membrane was carefully removed. […] The membrane was fixed with methanol and stained using the Diff-Quik Staining Solutions I and II. The nuclei of NHDF are stained purple. The membrane was mounted on a glass slide using cedarwood immersion oil and a cover slip. […] The average number of migrated NHDF in the negative control was subtracted from the experimental (peptide) data and positive control data.

Assay [3] has as its system normal human epidermal keratinocytes (Clonetics, CC-2503). Description: Keratinocyte proliferation assay. To be noted: 48 hours. As for the experimental part:
The proliferative response of these human skin keratinocytes to the 19mer peptide (SEQ ID NO:11) was measured in a 96-well assay system using keratinocyte basal medium (KBM, Clonetics, catalog number CC-3103) as a control. […] The plates were incubated for 24 hours at 37° C. in a humidified 5% CO2 atmosphere. […] In addition, 100 μl of vehicle KBM was added to 10 wells as control. The plate was incubated for 48 hours at 37° C. in a humidified, 5% CO2 atmosphere. After incubation, 20 μl of Cell Titer 96 Aqueous One Solution was added to all wells. The plate was swirled gently and placed back in the incubator for 3 hours. The spectrophotometric absorbance of each well was read at 490 nm. Results were analyzed statistically using one-way ANOVA.

`CC(C)[C@H](NC(=O)[C@H](CC(=O)O)NC(=O)[C@@H]1CCCN1C(=O)[C@H](CC(N)=O)NC(=O)CNC(=O)[C@H](CS)NC(=O)[C@H](CCCNC(=N)N)NC(=O)[C@@H]1CCCN1)C(=O)N[C@@H](C)C(=O)N[C@@H](CC(N)=O)C(=O)N[C@@H](Cc1ccc(O)cc1)C(=O)N[C@@H](CC(N)=O)C(=O)N[C@@H](Cc1ccccc1)C(=O)N[C@@H](Cc1ccccc1)C(=O)N1CCC[C@H]1C(=O)N[C@@H](CCCNC(=N)N)C(=O)N[C@@H](CCCCN)C(=O)N1CCC[C@H]1C(=O)N[C@@H](CCCCN)C(=O)O` [19-mer]: the results for the “collagen production, Median (absorbance at 450 nm)” value in assay [1] (1×10^−5 M) and in assay [1] (1×10^−6 M) were 0.8365 and 0.8315, respectively. The “collagen production, Mean (absorbance at 450 nm)” value in assay [1] (1×10^−5 M) was 0.8365; in assay [1] (1×10^−6 M), 0.8315. In addition, the “collagen production versus control” value in assay [1] (10^−5 and 10^−6 M, P<0.001) is listed as “increased collagen production at both concentrations employed”. Further, the “percent of migrated NHDF compared to plasma fibronectin positive control” value is 46%±3% in assay [2] (100 μg/mL peptide, three hours); 46±3% in assay [2] (100 μg/mL peptide, three hours, listed as 19-mer peptide); 55%±3% in assay [2] (1000 μg/mL peptide, three hours); 55±3% in assay [2] (1000 μg/mL peptide, three hours, listed as 19-mer peptide); “about 20%” in assay [2] (concentrations below 100 μg/mL). The “keratinocyte growth (OD 490 nm) versus control” value is “even greater cell growth” in assay [3] (1×10^−4 M), “significantly greater cell density” in assay [3] (1×10^−5 M) and “only a small amount of cell proliferation” in assay [3] (1×10^−6 M).

The record behind these values is US7094754B2, “Anti-aging and wound healing compounds” (Kimberly-Clark Worldwide, Inc., priority 2001, dated 2006).
